As to `CCCCOc1ccc(Cl)cc1C(=O)N[C@H]1C[C@@H]1c1ccc(-c2ccc(C(=O)O)cc2)cc1` [Compound 108, 4′-{(1R,2S)-2-[(2-butoxy-5-chlorobenzoyl)amino]cyclopropyl}-biphenyl-4-carboxylic acid], the melting point – broadly, the temperature of the solid-liquid transition – fell in the range of 218 to 222 °C.

Source of the values: US8299123B2, “CCR10 antagonists” (Boehringer Ingelheim International GmbH, priority 2007, dated 2012).
